# Patent US10639285B2 (Aurea Biolabs Private Limited, priority 2014, dated 2020)
# Experiment: Absorption of curcumin and white curcumin in the blood plasma (FIG. 3)
# Format: in vivo
smiles,measurement,value
"COc1cc(C=CC(=O)CC(=O)C=Cc2ccc(O)c(OC)c2)ccc1O [curcumin, 1,7 bis (4-hydroxy-3-methoxy phenyl)-1,6 heptadiene-3,5-dione]",time of absorption in the blood plasma,2 h
